Measurements taken from PubChem BioAssay (NCI).
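A five-concentration, 48-hour dose response in 96-well plates underlies each endpoint, interpolated linearly between surrounding concentrations. TGI: total growth inhibition.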

Columns and labels:
Test in all cases: DTP human tumour cell line panel, 48 h
NCI/ADR-RES ovarian = test system: NCI/ADR-RES ovarian
OVCAR-5 ovarian = test system: OVCAR-5 ovarian
A549 NSCLC = test system: A549 NSCLC
UO-31 renal = test system: UO-31 renal
SNB-19 CNS = test system: SNB-19 CNS
DU-145 prostate = test system: DU-145 prostate
SF-539 CNS = test system: SF-539 CNS
HT29 colon = test system: HT29 colon
SN12C renal = test system: SN12C renal
CCRF-CEM leukemia = test system: CCRF-CEM leukemia
LOX IMVI melanoma = test system: LOX IMVI melanoma
KM12 colon = test system: KM12 colon
TK-10 renal = test system: TK-10 renal
BT-549 breast = test system: BT-549 breast
ACHN renal = test system: ACHN renal
UACC-62 melanoma = test system: UACC-62 melanoma
MALME-3M melanoma = test system: MALME-3M melanoma
MOLT-4 leukemia = test system: MOLT-4 leukemia
CAKI-1 renal = test system: CAKI-1 renal
SK-MEL-2 melanoma = test system: SK-MEL-2 melanoma
IGROV1 ovarian = test system: IGROV1 ovarian
HCT-116 colon = test system: HCT-116 colon
NCI-H460 lung = test system: NCI-H460 lung
786-0 renal = test system: 786-0 renal
NCI-H23 lung = test system: NCI-H23 lung
MCF7 breast = test system: MCF7 breast
K-562 leukemia = test system: K-562 leukemia
SNB-75 CNS = test system: SNB-75 CNS
T-47D breast = test system: T-47D breast
HL-60(TB) leukemia = test system: HL-60(TB) leukemia
EKVX NSCLC = test system: EKVX NSCLC
PC-3 prostate = test system: PC-3 prostate
SK-MEL-28 melanoma = test system: SK-MEL-28 melanoma
MDA-MB-435 = test system: MDA-MB-435
SR leukemia = test system: SR leukemia
HS 578T breast = test system: HS 578T breast
OVCAR-8 ovarian = test system: OVCAR-8 ovarian
A498 renal = test system: A498 renal
OVCAR-4 ovarian = test system: OVCAR-4 ovarian
RXF 393 renal = test system: RXF 393 renal
UACC-257 melanoma = test system: UACC-257 melanoma
U251 CNS = test system: U251 CNS
COLO 205 colon = test system: COLO 205 colon
NCI-H522 lung = test system: NCI-H522 lung
SK-OV-3 ovarian = test system: SK-OV-3 ovarian
OVCAR-3 ovarian = test system: OVCAR-3 ovarian
HCT-15 colon = test system: HCT-15 colon
MDA-N = test system: MDA-N
SF-295 CNS = test system: SF-295 CNS
RPMI-8226 leukemia = test system: RPMI-8226 leukemia
SF-268 CNS = test system: SF-268 CNS
SK-MEL-5 melanoma = test system: SK-MEL-5 melanoma
HCC-2998 colon = test system: HCC-2998 colon
HOP-92 NSCLC = test system: HOP-92 NSCLC
SW-620 colon = test system: SW-620 colon
MDA-MB-231 breast = test system: MDA-MB-231 breast
NCI-H226 lung = test system: NCI-H226 lung
M14 melanoma = test system: M14 melanoma
HOP-62 NSCLC = test system: HOP-62 NSCLC

SMILES: O=P(Nc1ccccc1)(Oc1ccccc1)N1CCN(c2ccccc2)CC1 (centres undefined)
- TGI (NCI/ADR-RES ovarian): 39 µM
- TGI (OVCAR-5 ovarian): 33.5 µM
- TGI (A549 NSCLC): 38.5 µM
- TGI (UO-31 renal): 31 µM
- TGI (SNB-19 CNS): 32.1 µM
- TGI (DU-145 prostate): 49.4 µM
- TGI (SF-539 CNS): 33.9 µM
- TGI (HT29 colon): 29.3 µM
- TGI (SN12C renal): 36 µM
- TGI (CCRF-CEM leukemia): > 100 µM
- TGI (LOX IMVI melanoma): 33.5 µM
- TGI (KM12 colon): 33.5 µM
- TGI (TK-10 renal): 52.2 µM
- TGI (BT-549 breast): 29.5 µM
- TGI (ACHN renal): 53.9 µM
- TGI (UACC-62 melanoma): 25.8 µM
- TGI (MALME-3M melanoma): 33.4 µM
- TGI (MOLT-4 leukemia): 52.6 µM
- TGI (CAKI-1 renal): 58.3 µM
- TGI (SK-MEL-2 melanoma): 35.7 µM
- TGI (IGROV1 ovarian): 40.4 µM
- TGI (HCT-116 colon): 32.8 µM
- TGI (NCI-H460 lung): 33.3 µM
- TGI (786-0 renal): 53.6 µM
- TGI (NCI-H23 lung): 36.9 µM
- TGI (MCF7 breast): 32.1 µM
- TGI (K-562 leukemia): > 100 µM
- TGI (SNB-75 CNS): 30.4 µM
- TGI (T-47D breast): 58.5 µM
- TGI (HL-60(TB) leukemia): > 100 µM
- TGI (EKVX NSCLC): 51.1 µM
- TGI (PC-3 prostate): 51.7 µM
- TGI (SK-MEL-28 melanoma): 35.2 µM
- TGI (MDA-MB-435): 51.5 µM
- TGI (SR leukemia): > 100 µM
- TGI (HS 578T breast): 40.5 µM
- TGI (OVCAR-8 ovarian): 49.8 µM
- TGI (A498 renal): 35.6 µM
- TGI (OVCAR-4 ovarian): 62.5 µM
- TGI (RXF 393 renal): 33.9 µM
- TGI (UACC-257 melanoma): 36.7 µM
- TGI (U251 CNS): 30.8 µM
- TGI (COLO 205 colon): 34.9 µM
- TGI (NCI-H522 lung): 19.7 µM
- TGI (SK-OV-3 ovarian): 33.3 µM
- TGI (OVCAR-3 ovarian): 39.7 µM
- TGI (HCT-15 colon): 35 µM
- TGI (MDA-N): 31.6 µM
- TGI (SF-295 CNS): 33.6 µM
- TGI (RPMI-8226 leukemia): > 100 µM
- TGI (SF-268 CNS): 84.1 µM
- TGI (SK-MEL-5 melanoma): 33.5 µM
- TGI (HCC-2998 colon): 29.9 µM
- TGI (HOP-92 NSCLC): 33.9 µM
- TGI (SW-620 colon): 63.6 µM
- TGI (MDA-MB-231 breast): 28.9 µM
- TGI (NCI-H226 lung): 43.9 µM
- TGI (M14 melanoma): 28.6 µM
- TGI (HOP-62 NSCLC): 32.3 µM
